The record followed here is patent US20120121591A1 (priority 2009, published 2012).

For test [1], the system named is IFN-g secretion from T cells in human whole blood. It is filed as cell-based.
The subject of test [2] is IL-2 secretion from T cells in human whole blood. It is filed as cell-based.
Setting [3] is: read-out: WB (IFNg) IC50 (nM, Avg).
Setting [4] is: read-out: WB (IL-2) IC50 (nM, Avg).

Read-outs that look alike come from different tables or passages of the source.

In the case of `CC[C@H](C)[C@@H]1NC(=O)[C@@H](NC(=O)[C@H](CO)NC(=O)[C@@H](N)CCCNC(=N)N)CSSC[C@@H](C(=O)O)NC(=O)[C@H]([C@@H](C)O)NC(=O)CNC(=O)[C@@H]2CSSC[C@@H]3NC(=O)[C@H](CCC(N)=O)NC(=O)[C@H](Cc4ccccc4)NC(=O)[C@H](C)NC(=O)[C@H]([C@@H](C)O)NC(=O)[C@H](CSSC[C@H](NC(=O)[C@H](Cc4ccccc4)NC(=O)[C@H](CO)NC(=O)[C@H](CC(C)C)NC(=O)[C@H](CCCNC(=N)N)NC(=O)[C@H](Cc4ccc(O)cc4)NC(=O)[C@H](CCCCN)NC(=O)[C@H](CCSC)NC(=O)[C@H](CO)NC(=O)[C@H](Cc4c[nH]cn4)NC(=O)[C@H](CCCCN)NC3=O)C(=O)N[C@@H](CCCNC(=N)N)C(=O)N[C@@H](CCCCN)C(=O)N[C@@H]([C@@H](C)O)C(=O)N2)NC(=O)[C@H](CCCNC(=N)N)NC(=O)[C@H](CO)NC(=O)[C@H](CCCCN)NC(=O)[C@@H]2CCCN2C(=O)[C@H]([C@@H](C)CC)NC(=O)[C@H]([C@@H](C)O)NC(=O)[C@H](CC(=O)O)NC1=O` [ShK(1-35), reference compound], the IC50 (commonly the point on the concentration scale where inhibition reaches its midpoint) in test [1] (read-out: WB (IFNg) IC50) turned out to be 0.078 nM; in test [1] (setting [3]) it was 0.052 nM; in test [2] (read-out: WB (IL-2) IC50) it was 0.067 nM; in test [2] (setting [4]), 0.043 nM.

As to `CC[C@H](C)[C@@H]1NC(=O)[C@@H](NC(=O)[C@H](CO)NC(=O)[C@@H](N)CCCNC(=N)N)CSSC[C@@H](C(=O)O)NC(=O)[C@H]([C@@H](C)O)NC(=O)CNC(=O)[C@@H]2CSSC[C@@H]3NC(=O)[C@H](CCC(N)=O)NC(=O)[C@H](Cc4ccccc4)NC(=O)[C@H](C)NC(=O)[C@H](Cc4cccc5ccccc45)NC(=O)[C@H](CSSC[C@H](NC(=O)[C@H](Cc4ccccc4)NC(=O)[C@H](CO)NC(=O)[C@H](CC(C)C)NC(=O)[C@H](CCCNC(=N)N)NC(=O)[C@H](Cc4ccc(O)cc4)NC(=O)[C@H](CCCCN)NC(=O)[C@H](CCSC)NC(=O)[C@H](CO)NC(=O)[C@H](Cc4c[nH]cn4)NC(=O)[C@H](CCCCN)NC3=O)C(=O)N[C@@H](CCCNC(=N)N)C(=O)N[C@@H](CCCCN)C(=O)N[C@@H]([C@@H](C)O)C(=O)N2)NC(=O)[C@H](CCCNC(=N)N)NC(=O)[C@H](CO)NC(=O)[C@H](CCCCN)NC(=O)[C@@H]2CCCN2C(=O)[C@H]([C@@H](C)CC)NC(=O)[C@H]([C@@H](C)O)NC(=O)[C@H](CC(=O)O)NC1=O` [[1-Nal13]ShK], the half-inhibitory concentration (IC50) in test [1] (setting [3]) was 4.86 nM; in test [2] (setting [4]), 3.56 nM.

For the molecule `CC[C@H](C)[C@@H]1NC(=O)[C@@H](NC(=O)[C@H](CO)NC(=O)[C@@H](N)CCCNC(=N)N)CSSC[C@@H](C(=O)O)NC(=O)[C@H]([C@@H](C)O)NC(=O)CNC(=O)[C@@H]2CSSC[C@@H]3NC(=O)[C@H](CCC(N)=O)NC(=O)[C@H](Cc4ccccc4)NC(=O)[C@H](C)NC(=O)[C@H]([C@@H](C)O)NC(=O)[C@H](CSSC[C@H](NC(=O)[C@H](Cc4ccccc4)NC(=O)[C@H](CO)NC(=O)[C@H](CC(C)C)NC(=O)[C@H](CCCNC(=N)N)NC(=O)[C@H](Cc4ccc(O)cc4)NC(=O)[C@H](CCCCN)NC(=O)[C@H](CCSC)NC(=O)[C@H](CO)NC(=O)[C@H](Cc4c[nH]cn4)NC(=O)[C@H](CCCCN)NC3=O)C(=O)N[C@@H](CCCNC(=N)N)C(=O)N[C@@H](Cc3cccc4ccccc34)C(=O)N[C@@H]([C@@H](C)O)C(=O)N2)NC(=O)[C@H](CCCNC(=N)N)NC(=O)[C@H](CO)NC(=O)[C@H](CCCCN)NC(=O)[C@@H]2CCCN2C(=O)[C@H]([C@@H](C)CC)NC(=O)[C@H]([C@@H](C)O)NC(=O)[C@H](CC(=O)O)NC1=O` [[1-Nal30]ShK], the 50% inhibitory concentration (IC50) in test [1] (setting [3]) was 0.148 nM; in test [2] (setting [4]), 0.082 nM.

Regarding `CC[C@H](C)[C@@H]1NC(=O)[C@@H](NC(=O)[C@H](CO)NC(=O)[C@@H](N)CCCNC(=N)N)CSSC[C@@H](C(=O)O)NC(=O)[C@H]([C@@H](C)O)NC(=O)CNC(=O)[C@@H]2CSSC[C@@H]3NC(=O)[C@H](CCC(N)=O)NC(=O)[C@H](Cc4ccccc4)NC(=O)[C@H](C)NC(=O)[C@H]([C@@H](C)O)NC(=O)[C@H](CSSC[C@H](NC(=O)[C@H](Cc4ccccc4)NC(=O)[C@H](CO)NC(=O)[C@H](CC(C)C)NC(=O)[C@H](CCCNC(=N)N)NC(=O)[C@H](Cc4ccc(O)cc4)NC(=O)[C@H](CCCCN)NC(=O)[C@H](CCSC)NC(=O)[C@H](CO)NC(=O)[C@H](Cc4c[nH]cn4)NC(=O)[C@H](CCCCN)NC3=O)C(=O)N[C@@H](CCCNC(=N)N)C(=O)N[C@@H](CCCCN)C(=O)N[C@@H]([C@@H](C)O)C(=O)N2)NC(=O)[C@H](C)NC(=O)[C@H](CO)NC(=O)[C@H](CCCCN)NC(=O)[C@@H]2CCCN2C(=O)[C@H]([C@@H](C)CC)NC(=O)[C@H]([C@@H](C)O)NC(=O)[C@H](CC(=O)O)NC1=O` [[Ala11]ShK], the IC50 in test [1] (setting [3]) was 1.9 nM; in test [2] (setting [4]), 1.24 nM.

In the case of `CC[C@H](C)[C@@H]1NC(=O)[C@@H](NC(=O)[C@H](CO)NC(=O)[C@@H](N)CCCNC(=N)N)CSSC[C@@H](C(=O)O)NC(=O)[C@H]([C@@H](C)O)NC(=O)CNC(=O)[C@@H]2CSSC[C@@H]3NC(=O)[C@H](CCC(N)=O)NC(=O)[C@H](Cc4ccccc4)NC(=O)[C@H](C)NC(=O)[C@H](C)NC(=O)[C@H](CSSC[C@H](NC(=O)[C@H](Cc4ccccc4)NC(=O)[C@H](CO)NC(=O)[C@H](CC(C)C)NC(=O)[C@H](CCCNC(=N)N)NC(=O)[C@H](Cc4ccc(O)cc4)NC(=O)[C@H](CCCCN)NC(=O)[C@H](CCSC)NC(=O)[C@H](CO)NC(=O)[C@H](Cc4c[nH]cn4)NC(=O)[C@H](CCCCN)NC3=O)C(=O)N[C@@H](CCCNC(=N)N)C(=O)N[C@@H](CCCCN)C(=O)N[C@@H]([C@@H](C)O)C(=O)N2)NC(=O)[C@H](CCCNC(=N)N)NC(=O)[C@H](CO)NC(=O)[C@H](CCCCN)NC(=O)[C@@H]2CCCN2C(=O)[C@H]([C@@H](C)CC)NC(=O)[C@H]([C@@H](C)O)NC(=O)[C@H](CC(=O)O)NC1=O` [[Ala13]ShK], the values for the 50% inhibitory concentration (IC50) in test [1] (setting [3]) and in test [2] (setting [4]) were 0.954 nM and 0.582 nM, respectively.

Consider `CC[C@H](C)[C@@H]1NC(=O)[C@@H](NC(=O)[C@H](CO)NC(=O)[C@@H](N)CCCNC(=N)N)CSSC[C@@H](C(=O)O)NC(=O)[C@H]([C@@H](C)O)NC(=O)CNC(=O)[C@@H]2CSSC[C@@H]3NC(=O)[C@H](C)NC(=O)[C@H](Cc4ccccc4)NC(=O)[C@H](C)NC(=O)[C@H]([C@@H](C)O)NC(=O)[C@H](CSSC[C@H](NC(=O)[C@H](Cc4ccccc4)NC(=O)[C@H](CO)NC(=O)[C@H](CC(C)C)NC(=O)[C@H](CCCNC(=N)N)NC(=O)[C@H](Cc4ccc(O)cc4)NC(=O)[C@H](CCCCN)NC(=O)[C@H](CCSC)NC(=O)[C@H](CO)NC(=O)[C@H](Cc4c[nH]cn4)NC(=O)[C@H](CCCCN)NC3=O)C(=O)N[C@@H](CCCNC(=N)N)C(=O)N[C@@H](CCCCN)C(=O)N[C@@H]([C@@H](C)O)C(=O)N2)NC(=O)[C@H](CCCNC(=N)N)NC(=O)[C@H](CO)NC(=O)[C@H](CCCCN)NC(=O)[C@@H]2CCCN2C(=O)[C@H]([C@@H](C)CC)NC(=O)[C@H]([C@@H](C)O)NC(=O)[C@H](CC(=O)O)NC1=O` [[Ala16]ShK], for which the IC50 in test [1] (setting [3]) worked out at 0.078 nM; in test [2] (setting [4]), 0.058 nM.

With `CC[C@H](C)[C@@H]1NC(=O)[C@@H](NC(=O)[C@H](CO)NC(=O)[C@@H](N)CCCNC(=N)N)CSSC[C@@H](C(=O)O)NC(=O)[C@H]([C@@H](C)O)NC(=O)CNC(=O)[C@@H]2CSSC[C@@H]3NC(=O)[C@H](CCC(N)=O)NC(=O)[C@H](Cc4ccccc4)NC(=O)[C@H](C)NC(=O)[C@H]([C@@H](C)O)NC(=O)[C@H](CSSC[C@H](NC(=O)[C@H](Cc4ccccc4)NC(=O)[C@H](CO)NC(=O)[C@H](CC(C)C)NC(=O)[C@H](CCCNC(=N)N)NC(=O)[C@H](Cc4ccc(O)cc4)NC(=O)[C@H](CCCCN)NC(=O)[C@H](CCSC)NC(=O)[C@H](CO)NC(=O)[C@H](Cc4c[nH]cn4)NC(=O)[C@H](CCCCN)NC3=O)C(=O)N[C@@H](CCCNC(=N)N)C(=O)N[C@@H](CCCCN)C(=O)N[C@@H]([C@@H](C)O)C(=O)N2)NC(=O)[C@H](CCCCN)NC(=O)[C@H](CO)NC(=O)[C@H](CCCCN)NC(=O)[C@@H]2CCCN2C(=O)[C@H]([C@@H](C)CC)NC(=O)[C@H]([C@@H](C)O)NC(=O)[C@H](CC(=O)O)NC1=O` [[Lys11]ShK], the IC50 in test [2] (setting [4]) stood at 0.095 nM.

Take `CC[C@H](C)[C@@H]1NC(=O)[C@@H](NC(=O)[C@H](CO)NC(=O)[C@@H](N)CCCNC(=N)N)CSSC[C@@H](C(N)=O)NC(=O)[C@H]([C@@H](C)O)NC(=O)CNC(=O)[C@@H]2CSSC[C@@H]3NC(=O)[C@H](CCCCN)NC(=O)[C@H](Cc4ccccc4)NC(=O)[C@H](C)NC(=O)[C@H]([C@@H](C)O)NC(=O)[C@H](CSSC[C@H](NC(=O)[C@H](Cc4ccccc4)NC(=O)[C@H](CO)NC(=O)[C@H](CC(C)C)NC(=O)[C@H](CCCNC(=N)N)NC(=O)[C@H](Cc4ccc(O)cc4)NC(=O)[C@H](CCCCN)NC(=O)[C@H](CCSC)NC(=O)[C@H](CO)NC(=O)[C@H](Cc4c[nH]cn4)NC(=O)[C@H](CCCCN)NC3=O)C(=O)N[C@@H](CCCNC(=N)N)C(=O)N[C@@H](CCCCN)C(=O)N[C@@H]([C@@H](C)O)C(=O)N2)NC(=O)[C@H](CCCNC(=N)N)NC(=O)[C@H](CO)NC(=O)[C@H](CCCCN)NC(=O)[C@@H]2CCCN2C(=O)[C@H]([C@@H](C)CC)NC(=O)[C@H]([C@@H](C)O)NC(=O)[C@H](CC(=O)O)NC1=O` [[Lys16]ShK-amide]: the IC50 in test [2] (read-out: WB (IL-2) IC50) worked out at 0.1 nM.

`CC[C@H](C)[C@@H]1NC(=O)[C@@H](NC(=O)[C@H](CO)NC(=O)[C@@H](N)CCCNC(=N)N)CSSC[C@@H](C(=O)O)NC(=O)[C@H]([C@@H](C)O)NC(=O)CNC(=O)[C@@H]2CSSC[C@@H]3NC(=O)[C@H](CCC(N)=O)NC(=O)[C@H](Cc4ccccc4)NC(=O)[C@H](C)NC(=O)[C@H]([C@@H](C)O)NC(=O)[C@H](CSSC[C@H](NC(=O)[C@H](Cc4ccccc4)NC(=O)[C@H](CO)NC(=O)[C@H](CC(C)C)NC(=O)[C@H](CCCCN)NC(=O)[C@H](Cc4ccc(O)cc4)NC(=O)[C@H](CCCCN)NC(=O)[C@H](CCSC)NC(=O)[C@H](CO)NC(=O)[C@H](Cc4c[nH]cn4)NC(=O)[C@H](CCCCN)NC3=O)C(=O)N[C@@H](CCCNC(=N)N)C(=O)N[C@@H](CCCCN)C(=O)N[C@@H]([C@@H](C)O)C(=O)N2)NC(=O)[C@H](CCCNC(=N)N)NC(=O)[C@H](CO)NC(=O)[C@H](CCCCN)NC(=O)[C@@H]2CCCN2C(=O)[C@H]([C@@H](C)CC)NC(=O)[C@H]([C@@H](C)O)NC(=O)[C@H](CC(=O)O)NC1=O` [[Lys24]ShK]: in test [2] (setting [4]), the IC50 was found to be 0.044 nM.

Consider “Fc.L20FcLoopShk (scFc): single-chain Fc with ShK inserted in the second Fc domain, 20-residue linker”, for which, in test [2] (read-out: In Vitro IC50, whole blood assay (inhibition of IL-2), average results), the IC50 was found to be 2.01 nM.
